Here are results for seven molecules from patent US9133147B2, “Thrombin inhibitors” (Merck Sharp & Dohme Corp., priority 2012, dated 2015).

Molecules are shown by their SMILES. Counter-ions that a name gives are not always drawn.

In the experiment the target is human α-thrombin (Homo sapiens, UniProt P00734). Briefly: In vitro assay for determining proteinase inhibition (thrombin Ki). Type of experiment: biochemical. As to conditions: 25° C., 0.05 M TRIS buffer pH 7.4, 0.15 M NaCl, 0.1% PEG; sar-PR-pna or Z-GPR-afc substrate; competitive inhibition assumed. The text has this:
Unless otherwise stated, all NMR determinations were made using 400 MHz field strength. Ki data was obtained according to the procedure described in Lewis, et al. Thromb. Res. 1993, 70, 173 (assays of human-thrombin and human trypsin), and Lewis, et al. Thromb. Haemostasis 1995, 74, 1107-1112.
Relevant in vitro assays are referenced in Morrissette, et al., Bioorg. Med. Chem. Lett. 2004, 14, 4161-4164 and described in Lewis, et al. Thromb. Res. 1993, 70, 173 (assays of human α-thrombin and human trypsin), and Lewis, et al. Thromb. Haemostasis 1995, 74, 1107-1112. The assays were carried out at 25° C. in 0.05 M TRIS buffer pH 7.4, 0.15 M NaCl, 0.1% PEG. Trypsin assays also contained 1 mM CaCl2. In assays wherein rates of hydrolysis of a p-nitroanilide (pna) substrate were determined, a Thermomax 96-well plate reader was used was used to measure (at 405 nm) the time dependent appearance of p-nitroaniline. sar-PR-pna was used to assay human α-thrombin (Km=125 μM) and bovine trypsin (Km=125 μM). p-Nitroanilide substrate concentration was determined from measurements of absorbance at 342 nm using an extinction coefficient of 8270 cm^−1M^−1.
In certain studies with potent inhibitors (Ki<10 nM) where the degree of inhibition of thrombin was high, a more sensitive activity assay was employed. In this assay the rate of thrombin catalyzed hydrolysis of the fluorogenic substrate benzyloxycarbonyl-Gly-Pro-Arg-7-amino-4-trifluoromethylcoumarin (Z-GPR-afc, Lewis S. D. et al. (1998) J. Biol. Chem. 273, pp. 4843-4854) (Km=27 μM) was determined from the increase in fluorescence at 500 nm (excitation at 400 nm) associated with production of 7-amino-4-trifluoromethyl coumarin. Concentrations of stock solutions of Z-GPR-afc were determined from measurements of absorbance at 380 nm of the 7-amino-4-trifluoromethyl coumarin produced upon complete hydrolysis of an aliquot of the stock solution by thrombin.
Activity assays were performed by diluting a stock solution of substrate at least tenfold to a final concentration ≦0.1 Km into a solution containing enzyme or enzyme equilibrated with inhibitor. Times required to achieve equilibration between enzyme and inhibitor were determined in control experiments. Initial velocities of product formation in the absence (VO) or presence of inhibitor (Vi) were measured. Assuming competitive inhibition, and that unity is negligible compared Km/[S], [I]/e, and [I]/e (where [S], [I], and e respectively represent the total concentrations, of substrate, inhibitor and enzyme), the equilibrium constant (Ki) for dissociation of the inhibitor from the enzyme can be obtained from the dependence of VO/Vi on [I] shown in the following equation. VO/Vi=1+[I]/Ki
For the molecule `CC(C)(C)[C@@H](O)C(=O)N1CCCC[C@H]1C(=O)NCc1cc(Cl)ccc1CN` [Example 1, (2S)—N-[2-(aminomethyl)-5-chlorobenzyl]-1-[(2R)-2-hydroxy-3,3-dimethylbutanoyl]piperidine-2-carboxamide trifluoroacetate salt], the affinity corresponds to a Ki of 0.0073 µM.

For the molecule `CC(C)(C)[C@@H](O)C(=O)N1CCNC[C@H]1C(=O)NCc1cc(Cl)ccc1CN` [Example 2, (2S)—N-[2-(aminomethyl)-5-chlorobenzyl]-1-[(2R)-2-hydroxy-3,3-dimethylbutanoyl]piperazine-2-carboxamide bis trifluoroacetate salt], the Ki (commonly a measure of affinity in units of concentration, obtained from inhibition or displacement) was 0.063 µM.

For `CN1CCN(C(=O)[C@H](O)C(C)(C)C)[C@H](C(=O)NCc2cc(Cl)ccc2CN)C1` [Example 3, (2S)—N-[2-(aminomethyl)-5-chlorobenzyl]-1-[(2R)-2-hydroxy-3,3-dimethylbutanoyl]-4-methylpiperazine-2-carboxamide trifluoroacetate salt], the Ki is 0.034 µM.

On to `CC(C)(C)[C@@H](O)C(=O)N1CCOC[C@H]1C(=O)NCc1cc(Cl)ccc1CN` [Example 4, (3S)—N-[2-(aminomethyl)-5-chlorobenzyl]-4-[(2R)-2-hydroxy-3,3-dimethylbutanoyl]morpholine-3-carboxamide trifluoroacetate salt], for which the inhibition constant (Ki) was found to be 0.032 µM.

Regarding `CC(C)(C)[C@@H](O)C(=O)N1CCSC[C@H]1C(=O)NCc1cc(Cl)ccc1CN` [Example 5, (3R)—N-[2-(aminomethyl)-5-chlorobenzyl]-4-[(2R)-2-hydroxy-3,3-dimethylbutanoyl]thiomorpholine-3-carboxamide trifluoroacetate salt], the inhibition constant (Ki) amounted to 0.0011 µM.

`CC(C)(C)[C@@H](O)C(=O)N1CC[S+]([O-])C[C@H]1C(=O)NCc1cc(Cl)ccc1CN` (stereo partly drawn) [Example 6, (3R)—N-[2-(aminomethyl)-5-chlorobenzyl]-4-[(2R)-2-hydroxy-3,3-dimethylbutanoyl]thiomorpholine-3-carboxamide 1-oxide trifluoroacetate (salt)]: affinity was put at a Ki of 0.078 µM.

As to `CC(C)(C)[C@@H](O)C(=O)N1CCS(=O)(=O)C[C@H]1C(=O)NCc1cc(Cl)ccc1CN` [Example 7, (3R)—N-[2-(aminomethyl)-5-chlorobenzyl]-4-[(2R)-2-hydroxy-3,3-dimethylbutanoyl]thiomorpholine-3-carboxamide 1,1-dioxide trifluoroacetate salt], affinity was put at a Ki of 0.052 µM.
